Test results reported in patent US20250075248A1, “SYSTEMS, METHODS, AND DEVICES FOR ANTIMICROBIAL SUSCEPTIBILITY TESTING” (Deepull Diagnostics S.L., priority 2022, published 2025).
In brackets after ≈: the same amount, converted by molar mass.

Assays:
Format in all cases: cell-based
[1] = test system: Escherichia coli resistant (ATCC700891); assay: Broth microdilution method MIC; settings: E. coli ATCC700891, read-out: MIC according to broth microdilution method
[2] = test system: Escherichia coli susceptible (ATCC25922); assay: Fast (1 hour) high dose detection of resistant bacteria by fluorescence microscopy
Method: (§1) To rapidly detect high resistant bacteria to a particular antimicrobial agent, bacteria were grown during a short period of time (1 hour) in the presence of high dose of that antimicrobial agent. Two strains of Escherichia coli, one susceptible (ATCC25922) and the other resistant (ATCC700891) to ampicillin were grown until an exponential phase in culture media. Bacteria cultures were diluted in culture media (Mueller Hinton cation adjusted broth) and were incubated at a final concentration of 2×10^4 CFU/mL during 1 hour at 37° C. in the presence of ampicillin at a final concentration of 128 mg/L, 64 mg/L, and 32 mg/L in a final volume of 10 μL. Three replicates were performed for each antibiotic concentration.
(§2) Samples were visualized at time 0 that represents bacteria before any incubation and after 1 hour incubation. 5 μL of each sample were transferred to a 384-well plate with flat polystyrene film bottom and incubated with fluorescence dyes (SYBR Green and Propidium Iodide) during 10 minutes at room temperature in the dark. The 384-well plate was centrifuged during 1 minute at 3000 g in a swinging-bucket movement and observed in an inverted fluorescence microscope. For each sample a composite image covering the bottom of each well was constructed. Images were analyzed with a custom software to count bacteria, detect filamentous bacteria, counts red bacteria, and record the brightness of bacteria. These images are illustrated in FIG. 26A.

[3] = test system: Escherichia coli resistant (ATCC700891); assay: as above
Method: as §1, §2

[4] = test system: Escherichia coli susceptible (ATCC25922); assay: Broth microdilution method MIC; settings: E. coli ATCC25922, read-out: MIC according to broth microdilution method
[5] = 128 mg/L, 64 mg/L and 32 mg/L, 1 hour at 37° C.

MIC [1]: ≥ 128 µg/mL
MIC [4]: 4 µg/mL (≈ 11.4 µM)
SMILES: CC1(C)S[C@@H]2[C@H](NC(=O)[C@H](N)c3ccccc3)C(=O)N2[C@H]1C(=O)O [ampicillin, Ampicillin]
bacterial growth after 1 hour incubation [2, 5]: does not grow
red (Propidium Iodide, dead) bacteria after 1 hour incubation ([2]; at 128 mg/L): presence of red bacteria
bacterial morphology after 1 hour incubation ([2]; in the three concentrations tested (128, 64, 32 mg/L)): filamentous form
bacterial growth after 1 hour incubation [3, 5]: showed growth
filamentous or red bacteria after 1 hour incubation ([3]; all three tested concentrations (128, 64, 32 mg/L)): without presence of filamentous bacteria or red bacteria
